# Measured values as given in ChEMBL document CHEMBL1138514, “Rhodamine inhibitors of P-glycoprotein: an amide/thioamide "switch" for ATPase activity” (J Med Chem, 2009).
# Key:
# MDR1 (ABCB1) = MDR1 (ABCB1) (Homo sapiens, UniProt P08183); assay: Induction of human histidine10-tagged MDR1 ATPase activity expressed in BHK cells relative to basal activity
# MDR3 (ABCB1) = MDR3 (ABCB1) (Mus musculus, UniProt P21447); assay: Induction of mouse cysteine-less MDR3 ATPase activity relative to basal activity
# [1] = biological target: T1, ATP-dependent translocase ABCB1 (Homo sapiens, UniProt P08183); assay: Inhibition of human MDR1 expressed in MDCK2 cells assessed as enhancement of Calcein-AM uptake treated 30 mins before Calcein-AM challenge measured after 20 mins
# MDR1 [2] = assay: Efflux ratio of permeability from apical to basolateral over basolateral to apical side in MDCK2 cells over expressing MDR1 at 5 uM after 1 hr in presence LSN335984 pretreated for 30 mins measured after 1 hr; conditions: dog
# [3] = Octanol-water partition coefficient, log P of the compound
# MDR1 [4] = assay: (§1) Permeability from basolateral to apical side of MDCK2 cells over expressing MDR1 at 5 uM in presence LSN335984 pretreated for 30 mins measured after 1 hr; conditions: dog
# MDR1 [5] = assay: (§2) Permeability from apical to basolateral side of MDCK2 cells over expressing MDR1 at 5 uM in presence LSN335984 pretreated for 30 mins measured after 1 hr; conditions: dog
# [6] = biological target: T1, ATP-dependent translocase ABCB1; assay: Inhibition of verapamil-stimulated ATPase activity of human histidine10-tagged MDR1 expressed in BHK cells
# MDR1 [7] = assay: (§3) Permeability from basolateral to apical side of MDCK2 cells over expressing MDR1 at 5 uM after 1 hr; conditions: dog, MDCK-MDR1
# [8] = biological target: ATP-dependent translocase ABCB1 (Mus musculus, UniProt P21447); assay: Inhibition of verapamil-stimulated ATPase activity of mouse cysteine-less MDR3
# [9] = Ratio of permeability from apical to basolateral side after 1 hr of drug washout by methanol to apical to basolateral side in MDCK2 cell monolayer over expressing MDR1 at 5 uM after 1 hr of drug washout by methanol in presence LSN335984; conditions: dog, mdck-ii
# [10] = Permeability from apical to basolateral side of MDCK2 cell monolayer over expressing MDR1 assessed as drug concentration associated with cell at 5 uM after 1 hr of drug washout by methanol in presence of LSN335984; conditions: dog
# MDR1 [11] = assay: (§4) Permeability from apical to basolateral side of MDCK2 cells over expressing MDR1 at 5 uM after 1 hr; conditions: dog, MDCK-MDR1
# [12] = Permeability from apical to basolateral side of MDCK2 cell monolayer over expressing MDR1 assessed as drug concentration associated with cell at 5 uM after 1 hr of drug washout by methanol; conditions: dog
# MDR1 [13] = assay: (§5) Efflux ratio of permeability from apical to basolateral over basolateral to apical side in MDCK2 cells over expressing MDR1 at 5 uM after 1 hr; conditions: dog, MDCK-MDR1
# [14] = as §1; conditions: dog, MDCK-MDR1, 1 h, 5 µM
# [15] = as §2; conditions: dog, MDCK-MDR1, 1 h, 5 µM
# [16] = as §3; conditions: dog, MDCK-MDR1, 1 h, 5 µM
# [17] = as §4; conditions: dog, MDCK-MDR1, 1 h, 5 µM
# [18] = as §5; conditions: dog, MDCK-MDR1, 1 h, 5 µM
# [19] = human histidine10-tagged MDR1 expressed in BHK cells
# [20] = MDCK-MDR1, with LSN335984 (concentration not stated)
# T1 sequence (P08183 whole entry): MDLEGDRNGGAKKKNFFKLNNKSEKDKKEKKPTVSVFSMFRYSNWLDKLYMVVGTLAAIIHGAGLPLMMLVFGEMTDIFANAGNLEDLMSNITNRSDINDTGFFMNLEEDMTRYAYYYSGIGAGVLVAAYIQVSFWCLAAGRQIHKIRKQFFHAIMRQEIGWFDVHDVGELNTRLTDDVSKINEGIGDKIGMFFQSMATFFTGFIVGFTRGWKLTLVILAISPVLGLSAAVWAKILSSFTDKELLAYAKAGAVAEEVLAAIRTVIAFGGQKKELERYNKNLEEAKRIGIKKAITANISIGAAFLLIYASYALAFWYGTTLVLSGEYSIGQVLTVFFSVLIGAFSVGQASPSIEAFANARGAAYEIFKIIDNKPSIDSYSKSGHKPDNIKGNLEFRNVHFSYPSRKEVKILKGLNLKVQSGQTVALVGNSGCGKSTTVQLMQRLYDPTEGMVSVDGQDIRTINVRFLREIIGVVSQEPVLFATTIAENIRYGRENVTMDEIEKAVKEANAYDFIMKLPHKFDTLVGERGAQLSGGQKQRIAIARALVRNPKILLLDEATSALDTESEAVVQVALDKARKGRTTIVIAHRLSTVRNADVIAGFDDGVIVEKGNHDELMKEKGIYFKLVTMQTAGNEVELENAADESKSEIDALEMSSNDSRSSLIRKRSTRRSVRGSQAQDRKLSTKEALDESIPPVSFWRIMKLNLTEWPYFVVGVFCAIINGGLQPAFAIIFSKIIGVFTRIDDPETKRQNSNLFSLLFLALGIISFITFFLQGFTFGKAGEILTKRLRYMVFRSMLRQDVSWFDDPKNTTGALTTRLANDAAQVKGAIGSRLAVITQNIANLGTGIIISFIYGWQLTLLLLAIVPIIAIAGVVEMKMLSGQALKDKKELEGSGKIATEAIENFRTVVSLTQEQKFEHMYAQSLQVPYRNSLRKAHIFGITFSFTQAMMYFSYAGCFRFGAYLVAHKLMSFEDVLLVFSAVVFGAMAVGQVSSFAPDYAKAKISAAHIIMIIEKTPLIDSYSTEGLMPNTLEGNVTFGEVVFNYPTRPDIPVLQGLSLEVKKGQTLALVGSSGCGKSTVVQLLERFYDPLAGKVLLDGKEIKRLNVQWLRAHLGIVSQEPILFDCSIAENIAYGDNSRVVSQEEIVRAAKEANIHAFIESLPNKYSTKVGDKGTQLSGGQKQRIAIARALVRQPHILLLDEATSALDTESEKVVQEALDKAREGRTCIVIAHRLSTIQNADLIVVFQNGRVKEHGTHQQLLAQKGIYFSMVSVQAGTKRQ
# MDR1 (ABCB1), sequence (P08183 whole entry): as above
# ATP-dependent translocase ABCB1 (Mus musculus, UniProt P21447), sequence (P21447 whole entry, looked up): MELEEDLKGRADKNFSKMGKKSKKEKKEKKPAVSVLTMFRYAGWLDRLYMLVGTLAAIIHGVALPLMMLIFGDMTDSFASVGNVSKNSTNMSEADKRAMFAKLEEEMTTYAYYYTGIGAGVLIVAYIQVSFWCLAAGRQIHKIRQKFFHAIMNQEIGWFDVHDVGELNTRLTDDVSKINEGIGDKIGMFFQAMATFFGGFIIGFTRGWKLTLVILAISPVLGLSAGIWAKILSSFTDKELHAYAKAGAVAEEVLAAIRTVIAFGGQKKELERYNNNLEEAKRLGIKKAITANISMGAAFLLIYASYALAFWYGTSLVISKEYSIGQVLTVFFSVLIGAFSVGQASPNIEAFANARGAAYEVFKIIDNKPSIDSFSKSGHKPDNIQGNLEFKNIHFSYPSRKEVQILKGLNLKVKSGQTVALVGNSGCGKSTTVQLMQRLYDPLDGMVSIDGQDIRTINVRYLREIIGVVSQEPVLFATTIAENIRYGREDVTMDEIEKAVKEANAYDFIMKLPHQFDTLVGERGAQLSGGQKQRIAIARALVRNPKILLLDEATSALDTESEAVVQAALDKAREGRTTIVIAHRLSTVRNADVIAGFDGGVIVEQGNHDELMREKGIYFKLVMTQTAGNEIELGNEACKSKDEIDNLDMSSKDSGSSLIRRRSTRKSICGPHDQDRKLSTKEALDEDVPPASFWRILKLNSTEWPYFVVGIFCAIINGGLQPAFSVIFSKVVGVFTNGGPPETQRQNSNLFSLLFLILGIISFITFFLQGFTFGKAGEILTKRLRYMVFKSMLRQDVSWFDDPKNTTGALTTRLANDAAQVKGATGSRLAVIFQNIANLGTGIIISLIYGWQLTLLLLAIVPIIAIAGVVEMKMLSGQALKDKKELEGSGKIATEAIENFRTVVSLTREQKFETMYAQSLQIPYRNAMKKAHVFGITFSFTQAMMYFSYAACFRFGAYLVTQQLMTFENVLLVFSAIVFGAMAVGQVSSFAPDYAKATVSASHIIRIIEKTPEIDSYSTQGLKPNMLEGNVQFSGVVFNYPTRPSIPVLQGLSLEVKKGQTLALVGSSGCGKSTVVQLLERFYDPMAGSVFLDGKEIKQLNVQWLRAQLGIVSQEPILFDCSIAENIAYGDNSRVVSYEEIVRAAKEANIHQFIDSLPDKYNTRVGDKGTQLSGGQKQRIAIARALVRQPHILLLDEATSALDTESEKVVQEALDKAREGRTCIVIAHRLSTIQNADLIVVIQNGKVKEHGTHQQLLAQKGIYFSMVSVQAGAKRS
# MDR3 (ABCB1), sequence (P21447 whole entry): as the sequence (P21447 whole entry, looked up) above
smiles,measurement,setting,value
CN(C)c1ccc2c(-c3ccccc3)c3ccc(=[N+](C)C)cc-3[se]c2c1,fold induction,MDR1 (ABCB1); [19],7.2
same,fold induction,MDR3 (ABCB1); mouse cysteine-less MDR3,4
same,IC50,[1],11 µM
CN(C)c1ccc2c(-c3ccsc3C(=O)O)c3ccc(=[N+](C)C)cc-3sc2c1,fold induction,MDR1 (ABCB1); [19],4.3
C[N+](C)=c1ccc2c(-c3ccccc3)c3cc4c5c(c3[se]c-2c1)CCCN5CCC4.F[P-](F)(F)(F)(F)F,"efflux ratio at 1 h, 5 µM",MDR1 [2]; [20],0.9
same,fold induction,MDR1 (ABCB1); [19],< 1.5
same,logP,[3],2.4
same,"Papp B→A at 1 h, 5 µM",MDR1 [4]; [20],12 nm/s
same,"Papp A→B at 1 h, 5 µM",MDR1 [5]; [20],13 nm/s
same,IC50,[6],2.3 µM
same,fold induction,MDR3 (ABCB1); mouse cysteine-less MDR3,2.1
same,"Papp B→A at 1 h, 5 µM",MDR1 [7],250 nm/s
same,IC50,[8],0.28 µM
same,IC50,[1],4.9 µM
same,Ratio,[9],2
same,Activity,"[10]; mdck-ii, 1 h",64%
same,"Papp A→B at 1 h, 5 µM",MDR1 [11],16 nm/s
same,Activity,"[12]; mdck-ii, 1 h",32%
same,"efflux ratio at 1 h, 5 µM",MDR1 [13],15
CN(C)c1cccc(-c2c3ccc(=[N+](C)C)cc-3sc3cc(N(C)C)ccc23)c1,fold induction,MDR1 (ABCB1); [19],7.7
same,fold induction,MDR3 (ABCB1); mouse cysteine-less MDR3,3.5
CN(C)c1ccc2c(-c3ccc(C(=O)O)s3)c3ccc(=[N+](C)C)cc-3sc2c1,fold induction,MDR1 (ABCB1); [19],2.7
CN(C)c1ccc2c(-c3ccc(C(=S)N4CCCCC4)s3)c3ccc(=[N+](C)C)cc-3sc2c1,logP,[3],1.7
same,IC50,[8],32 µM
COc1ccc(-c2c3ccc(=[N+](C)C)cc-3sc3cc(N(C)C)ccc23)cc1OC.F[P-](F)(F)(F)(F)F,fold induction,MDR1 (ABCB1); [19],8.2
same,logP,[3],0.28
same,fold induction,MDR3 (ABCB1); mouse cysteine-less MDR3,3
same,Activity,"[10]; mdck-ii, 1 h",53%
same,Activity,"[12]; mdck-ii, 1 h",16%
CCN(CC)C(=O)c1ccccc1-c1c2ccc(=[N+](C)C)cc-2sc2cc(N(C)C)ccc12,fold induction,MDR3 (ABCB1); mouse cysteine-less MDR3,10.1
CCOC(=O)c1ccc(-c2c3ccc(=[N+](C)C)cc-3sc3cc(N(C)C)ccc23)s1,fold induction,MDR3 (ABCB1); mouse cysteine-less MDR3,2.9
C[N+](C)=c1ccc2c(-c3ccccc3)c3cc4c5c(c3[te]c-2c1)CCCN5CCC4,fold induction,MDR1 (ABCB1); [19],3
CCN(CC)C(=O)c1ccc(-c2c3ccc(=[N+](C)C)cc-3[se]c3cc(N(C)C)ccc23)s1.F[P-](F)(F)(F)(F)F,fold induction,MDR1 (ABCB1); [19],10.5
same,logP,[3],-0.39
same,fold induction,MDR3 (ABCB1); mouse cysteine-less MDR3,10.1
same,Activity,"[10]; mdck-ii, 1 h",24%
same,Activity,"[12]; mdck-ii, 1 h",11%
C[N+](C)=c1ccc2c(-c3ccc(C(=S)N4CCCCC4)s3)c3cc4c5c(c3sc-2c1)CCCN5CCC4.F[P-](F)(F)(F)(F)F,logP,[3],2.7
same,permeability,[14],1.6 nm/s
same,permeability,[15],0.8 nm/s
same,permeability,[16],50 nm/s
same,Activity,"[10]; MDCK-MDR1, 1 h",30%
same,permeability,[17],0.8 nm/s
same,Activity,"[12]; MDCK-MDR1, 1 h",23%
CN(C)c1cccc(-c2c3ccc(=[N+](C)C)cc-3[se]c3c4c5c(cc23)CCCN5CCC4)c1,fold induction,MDR1 (ABCB1); [19],< 1.5
same,IC50,[6],23.6 µM
CN(C)c1ccc(-c2c3ccc(=[N+](C)C)cc-3[se]c3c4c5c(cc23)CCCN5CCC4)cc1,fold induction,MDR1 (ABCB1); [19],< 1.5
same,IC50,[6],6.8 µM
CN(C)c1ccc2c(-c3ccc(N4CCOCC4)cc3)c3ccc(=[N+](C)C)cc-3sc2c1,fold induction,MDR1 (ABCB1); [19],4.8
C[N+](C)=c1ccc2c(-c3ccc(C(=S)N4CCOCC4)s3)c3cc4c5c(c3[se]c-2c1)CCCN5CCC4,IC50,[1],14 µM
CN(C)c1ccc(-c2c3ccc(=[N+](C)C)cc-3sc3cc(N(C)C)ccc23)cc1,fold induction,MDR1 (ABCB1); [19],9
same,fold induction,MDR3 (ABCB1); mouse cysteine-less MDR3,1
COc1cccc(-c2c3ccc(=[N+](C)C)cc-3[se]c3cc(N(C)C)ccc23)c1,fold induction,MDR1 (ABCB1); [19],2.5
same,fold induction,MDR3 (ABCB1); mouse cysteine-less MDR3,6.4
CN(C)c1ccc2c(-c3ccsc3C(=O)O)c3ccc(=[N+](C)C)cc-3[se]c2c1,fold induction,MDR1 (ABCB1); [19],2.1
same,fold induction,MDR3 (ABCB1); mouse cysteine-less MDR3,1.7
CN(C)c1ccc2c(-c3ccc(C(=S)N4CCCCC4)s3)c3ccc(=[N+](C)C)cc-3[te]c2c1.F[P-](F)(F)(F)(F)F,"efflux ratio at 1 h, 5 µM",MDR1 [2]; MDCK-MDR1,1.7
same,"Papp B→A at 1 h, 5 µM",MDR1 [4]; MDCK-MDR1,2 nm/s
same,"Papp A→B at 1 h, 5 µM",MDR1 [5]; MDCK-MDR1,1.2 nm/s
same,"Papp B→A at 1 h, 5 µM",MDR1 [7],22 nm/s
same,"Papp A→B at 1 h, 5 µM",MDR1 [11],0.9 nm/s
same,Activity,"[12]; MDCK-MDR1, 1 h",12%
same,"efflux ratio at 1 h, 5 µM",MDR1 [13],24
C[N+](C)=c1ccc2c(-c3ccc(C(=S)N4CCCCC4)s3)c3cc4c5c(c3[se]c-2c1)CCCN5CCC4,IC50,[1],5.3 µM
CN(C)c1cccc(-c2c3ccc(=[N+](C)C)cc-3[te]c3cc(N(C)C)ccc23)c1,fold induction,MDR1 (ABCB1); [19],5.5
C[N+](C)=c1ccc2c(-c3ccc(C(=S)N4CCOCC4)s3)c3cc4c5c(c3sc-2c1)CCCN5CCC4,IC50,[1],20 µM
CN(C)c1ccc2c(-c3ccccc3C(=O)O)c3ccc(=[N+](C)C)cc-3sc2c1,fold induction,MDR3 (ABCB1); mouse cysteine-less MDR3,3.5
COC(=O)c1ccccc1-c1c2ccc(=[N+](C)C)cc-2sc2cc(N(C)C)ccc12,fold induction,MDR3 (ABCB1); mouse cysteine-less MDR3,6
CN(C)c1ccc2c(-c3ccccc3)c3ccc(=[N+](C)C)cc-3[te]c2c1,fold induction,MDR1 (ABCB1); [19],8.4
CCN(CC)C(=O)c1ccc(-c2c3ccc(=[N+](C)C)cc-3sc3cc(N(C)C)ccc23)s1,fold induction,MDR3 (ABCB1); mouse cysteine-less MDR3,10.6
CN(C)c1ccc(-c2c3ccc(=[N+](C)C)cc-3[te]c3cc(N(C)C)ccc23)cc1,fold induction,MDR1 (ABCB1); [19],4.5
CN(C)c1ccc2c(-c3ccc(CCl)cc3)c3ccc(=[N+](C)C)cc-3oc2c1.[Br-] [TETRAMETHYLROSAMINE],"efflux ratio at 1 h, 5 µM",MDR1 [2]; MDCK-MDR1,1.6
same,logP,[3],1.1
same,"Papp B→A at 1 h, 5 µM",MDR1 [4]; [20],21 nm/s
same,"Papp A→B at 1 h, 5 µM",MDR1 [5]; [20],14 nm/s
same,fold induction,MDR3 (ABCB1); mouse cysteine-less MDR3,3.7
same,"Papp B→A at 1 h, 5 µM",MDR1 [7],1010 nm/s
same,Ratio,[9],4.3
same,Activity,"[10]; mdck-ii, 1 h",54%
same,"Papp A→B at 1 h, 5 µM",MDR1 [11],3 nm/s
same,Activity,"[12]; mdck-ii, 1 h",14.5%
same,Ratio,[18],338
CN(C)c1ccc2c(-c3ccc(N4CCOCC4)cc3)c3ccc(=[N+](C)C)cc-3[se]c2c1,fold induction,MDR1 (ABCB1); [19],3.3
same,fold induction,MDR3 (ABCB1); mouse cysteine-less MDR3,< 1
same,IC50,[8],23 µM
CN(C)c1ccc2c(CCCOc3ccccc3)c3ccc(=[N+](C)C)cc-3sc2c1,fold induction,MDR1 (ABCB1); [19],6.2
same,fold induction,MDR3 (ABCB1); mouse cysteine-less MDR3,6
C[N+](C)=c1ccc2c(-c3ccc(C(=S)N4CCCCC4)s3)c3cc4c5c(c3[te]c-2c1)CCCN5CCC4,IC50,[1],14 µM
CN(C)c1ccc(-c2c3ccc(=[N+](C)C)cc-3[se]c3cc(N(C)C)ccc23)cc1,fold induction,MDR1 (ABCB1); bhk,6.8
same,fold induction,MDR3 (ABCB1),2.3
same,IC50,[8],21 µM
CN(C)c1cccc(-c2c3ccc(=[N+](C)C)cc-3[se]c3cc(N(C)C)ccc23)c1,fold induction,MDR1 (ABCB1); [19],7.6
COc1cccc(-c2c3ccc(=[N+](C)C)cc-3sc3cc(N(C)C)ccc23)c1.[Br-],logP,[3],0.14
same,Activity,"[10]; mdck-ii, 1 h",56%
CN(C)c1ccc2c(-c3ccc(C(=O)O)s3)c3ccc(=[N+](C)C)cc-3[te]c2c1,fold induction,MDR1 (ABCB1); [19],1.8
COc1cccc(-c2c3ccc(=[N+](C)C)cc-3[te]c3cc(N(C)C)ccc23)c1,fold induction,MDR1 (ABCB1); [19],5.7
